In brackets after ≈: the same amount, converted by molar mass.
Tests used:
[1] = Acute toxicity, LD50 (mouse, oral administration); details: in vivo
Text: With reference to the compounds of Example Nos. 2, 3 and 4, all their acute toxicity values [LD50 (mouse, oral administration)] amount to above 4 g/kg.

Proteus morganii EP-14 = assay: Minimal inhibitory concentration, standard agar dilution method of the Japan Society of Chemotherapy; type: cell-based; details: Morganella morganii, EP14
Experimental: (§1) Minimal inhibitory concentration (MIC, μg/ml) of certain compounds obtained in the above examples was determined in accordance with the standard agar dilution method of the Japan Society of Chemotherapy.

[2] = system: Serratia marcescens ES-75; assay: as above; type: cell-based; details: ES75
Experimental: as §1

[3] = system: Pseudomonas aeruginosa EP-174; assay: as above; type: cell-based; details: EP174
Experimental: as §1

Escherichia coli NIHJ = assay: as above; type: cell-based
Experimental: as §1

[4] = system: Klebsiella pneumoniae EK-6; assay: as above; type: cell-based; details: EK6
Experimental: as §1

[5] = system: Staphylococcus aureus 209-P; assay: as above; type: cell-based
Experimental: as §1

Proteus vulgaris E-18 = assay: as above; type: cell-based; details: E18, Proteus vulgaris E-18, lactamase-producing bacterium
Experimental: as §1

Row | Structure (SMILES) | LD50 [1] | MIC (Proteus morganii EP-14) | MIC [2] | MIC [3] | MIC (Escherichia coli NIHJ) | MIC [4] | MIC [5] | MIC (Proteus vulgaris E-18)
1 | NC(=O)OCC1=C(C(=O)O)N2C(=O)[C@@H](NC(=O)[C@H](NC(=O)c3coc4cc(O)c(O)cc4c3=O)c3ccc(O)cc3)[C@H]2SC1 [Example 2, 7β-[D-2-(6,7-Dihydroxychromon-3-carboxamido)-2-(4-hydroxyphenyl)acetamido]-3-carbamoyloxymethyl-3-cephem-4-carboxylic acid] | > 4000 mg/kg | 25 µg/mL (≈ 39.9 µM) | 0.8 µg/mL (≈ 1.28 µM) | 0.4 µg/mL (≈ 0.638 µM) | 0.8 µg/mL (≈ 1.28 µM) | ≤ 0.05 µg/mL | 3.13 µg/mL (≈ 5 µM) | > 100 µg/mL
2 | CO[C@@]1(NC(=O)[C@H](NC(=O)c2coc3cc(O)c(O)cc3c2=O)c2ccc(O)cc2)C(=O)N2C(C(=O)O)=C(COC(=O)NC(=O)C(Cl)(Cl)Cl)CS[C@@H]21 [Example 3, 7β-[D-2-(6,7-Dihydroxychromon-3-carboxamido)-2-(4-hydroxyphenyl)acetamido]-7α-methoxy-3-trichloroacetylcarbamoyloxymethyl-3-cephem-4-carboxylic acid] | > 4000 mg/kg | 12.5 µg/mL (≈ 15.6 µM) | 1.56 µg/mL (≈ 1.95 µM) | 3.13 µg/mL (≈ 3.9 µM) | 3.13 µg/mL (≈ 3.9 µM) | ≤ 0.05 µg/mL | 6.25 µg/mL (≈ 7.79 µM) | 3.13 µg/mL (≈ 3.9 µM)
3 | CO[C@@]1(NC(=O)[C@H](NC(=O)c2coc3cc(O)c(O)cc3c2=O)c2ccc(O)cc2)C(=O)N2C(C(=O)O)=C(COC(N)=O)CS[C@@H]21 [Example 4, 7β-[D-2-(6,7-Dihydroxychromon-3-carboxamido)-2-(4-hydroxyphenyl)acetamido]-7α-methoxy-3-carbamoyloxymethyl-3-cephem-4-carboxylic acid] | > 4000 mg/kg | 6.25 µg/mL (≈ 9.52 µM) | 0.4 µg/mL (≈ 0.609 µM) | 1.56 µg/mL (≈ 2.38 µM) | 1.56 µg/mL (≈ 2.38 µM) | ≤ 0.05 µg/mL | 6.25 µg/mL (≈ 9.52 µM) | 0.8 µg/mL (≈ 1.22 µM)
